Measurements reported in the NIST ThermoML archive (doi:10.1016/j.jct.2008.10.010).
Numbers after ± are expanded uncertainties.

How the values were obtained:
[1] = 298.15 K; 101.33 kPa; Liquid; Pycnometric method
[2] = molar heat capacity at constant pressure; details: 101.33 kPa, Liquid, Small sample (50 mg) DSC
[3] = refractive index (Na D-line) (dimensionless); details: 298.15 K; 101.33 kPa; Liquid; Standard Abbe refractometry

OC1CCCC1 [cyclopentanol]
Details	mass density [kg/m3]	refractive index
[1]	942.86 ± 0.95	–
[3]	–	1.4512 ± 0.0008

[2]
Details	molar heat capacity at constant pressure [J/K/mol]
284.16 K	170.24 ± 2.6
285.15 K	170.99 ± 2.6
286.16 K	171.81 ± 2.7
287.14 K	172.53 ± 2.7
288.15 K	173.41 ± 2.7
289.16 K	174.28 ± 2.7
290.14 K	175.01 ± 2.7
291.15 K	175.87 ± 2.7
292.16 K	176.75 ± 2.7
293.14 K	177.58 ± 2.8
294.15 K	178.43 ± 2.8
295.16 K	179.3 ± 2.8
296.14 K	180.09 ± 2.8
297.15 K	180.97 ± 2.8
298.14 K	181.8 ± 2.8
298.15 K	181.82 ± 2.8
298.16 K	181.83 ± 2.8
299.14 K	182.68 ± 2.8
300.15 K	183.51 ± 2.8
301.16 K	184.44 ± 2.9
302.14 K	185.33 ± 2.9
303.15 K	186.22 ± 2.9
304.16 K	187.09 ± 2.9
305.14 K	188.03 ± 2.9
306.15 K	188.94 ± 2.9
307.16 K	189.83 ± 2.9
308.14 K	190.71 ± 3
309.15 K	191.61 ± 3
310.16 K	192.53 ± 3
311.14 K	193.42 ± 3
312.15 K	194.35 ± 3
313.16 K	195.28 ± 3
314.14 K	196.15 ± 3
315.15 K	197.1 ± 3
316.16 K	198.01 ± 3.1
317.14 K	198.91 ± 3.1
318.15 K	199.88 ± 3.1
319.15 K	200.81 ± 3.1
320.14 K	201.63 ± 3.1
321.15 K	202.63 ± 3.1
322.15 K	203.57 ± 3.1
323.14 K	204.44 ± 3.2
324.15 K	205.36 ± 3.2
325.15 K	206.28 ± 3.2
326.16 K	207.24 ± 3.2
327.15 K	208.09 ± 3.2
328.15 K	209.05 ± 3.2
329.14 K	209.96 ± 3.2
330.14 K	210.87 ± 3.3
331.15 K	211.73 ± 3.3
332.14 K	212.64 ± 3.3
333.14 K	213.55 ± 3.3
334.15 K	214.51 ± 3.3
335.16 K	215.32 ± 3.3
336.14 K	216.18 ± 3.4
337.15 K	217.08 ± 3.4
338.16 K	218.05 ± 3.4
339.14 K	218.88 ± 3.4
340.15 K	219.81 ± 3.4
341.16 K	220.6 ± 3.4
342.14 K	221.48 ± 3.4
343.15 K	222.33 ± 3.4
344.16 K	223.27 ± 3.5
345.14 K	224.05 ± 3.5
346.15 K	224.85 ± 3.5
347.16 K	225.68 ± 3.5
348.14 K	226.51 ± 3.5
349.15 K	227.32 ± 3.5
350.15 K	228.13 ± 3.5
351.14 K	228.9 ± 3.5
352.15 K	229.66 ± 3.6
353.15 K	230.44 ± 3.6

CCC(C)(C)O [2-methylbutan-2-ol]
Details	mass density [kg/m3]	refractive index
[1]	804.32 ± 0.79	–
[3]	–	1.4025 ± 0.0008

[2]
Details	molar heat capacity at constant pressure [J/K/mol]
284.14 K	233.4 ± 3.6
285.15 K	234.44 ± 3.6
286.16 K	235.36 ± 3.6
287.14 K	236.15 ± 3.7
288.15 K	237.23 ± 3.7
289.14 K	238.19 ± 3.7
290.14 K	239.11 ± 3.7
291.15 K	240.18 ± 3.7
292.14 K	241.19 ± 3.7
293.14 K	242.22 ± 3.8
294.15 K	243.25 ± 3.8
295.14 K	244.25 ± 3.8
296.14 K	245.3 ± 3.8
297.15 K	246.36 ± 3.8
298.14 K	247.43 ± 3.8
298.15 K	247.44 ± 3.8
298.16 K	247.45 ± 3.8
299.14 K	248.43 ± 3.9
300.15 K	249.45 ± 3.9
301.14 K	250.56 ± 3.9
302.14 K	251.71 ± 3.9
303.15 K	252.8 ± 3.9
304.14 K	253.86 ± 3.9
305.14 K	255.01 ± 4
306.15 K	256.09 ± 4
307.16 K	257.16 ± 4
308.14 K	258.22 ± 4
309.15 K	259.29 ± 4
310.16 K	260.36 ± 4
311.14 K	261.32 ± 4
312.15 K	262.41 ± 4.1
313.16 K	263.51 ± 4.1
314.14 K	264.5 ± 4.1
315.15 K	265.53 ± 4.1
316.16 K	266.49 ± 4.1
317.14 K	267.5 ± 4.1
318.15 K	268.57 ± 4.2
319.15 K	269.56 ± 4.2
320.14 K	270.43 ± 4.2
321.15 K	271.49 ± 4.2
322.15 K	272.37 ± 4.2
323.14 K	273.32 ± 4.2
324.15 K	274.25 ± 4.2
325.15 K	275.15 ± 4.3
326.14 K	276.09 ± 4.3
327.15 K	276.89 ± 4.3
328.15 K	277.86 ± 4.3
329.14 K	278.7 ± 4.3
330.14 K	279.59 ± 4.3
331.15 K	280.35 ± 4.3
332.14 K	281.18 ± 4.4
333.14 K	282.05 ± 4.4
334.15 K	283 ± 4.4
335.14 K	283.68 ± 4.4
336.14 K	284.35 ± 4.4
337.15 K	285.19 ± 4.4
338.14 K	285.94 ± 4.4
339.14 K	286.59 ± 4.4
340.15 K	287.37 ± 4.5
341.13 K	287.88 ± 4.5
342.14 K	288.59 ± 4.5
343.15 K	289.15 ± 4.5
344.16 K	289.83 ± 4.5
345.14 K	290.42 ± 4.5
346.15 K	290.94 ± 4.5
347.16 K	291.42 ± 4.5
348.14 K	292.03 ± 4.5
349.15 K	292.61 ± 4.5
350.16 K	293.03 ± 4.5
351.14 K	293.51 ± 4.5
352.15 K	293.87 ± 4.5
353.15 K	294.39 ± 4.6
354.15 K	294.87 ± 4.6
355.13 K	295.24 ± 4.6
356.14 K	295.66 ± 4.6
357.15 K	296.1 ± 4.6
358.15 K	296.36 ± 4.6
359.14 K	296.72 ± 4.6
360.15 K	296.98 ± 4.6
361.15 K	297.18 ± 4.6
362.15 K	297.48 ± 4.6
363.14 K	297.69 ± 4.6
364.15 K	297.95 ± 4.6
365.15 K	298.16 ± 4.6
366.14 K	298.39 ± 4.6
367.15 K	298.46 ± 4.6
368.15 K	298.75 ± 4.6
368.76 K	298.79 ± 4.6
